# Reference: patent US7041698B2, “Hepatitis C virus inhibitors” (Bristol-Myers Squibb Company, priority 2002, dated 2006)
# Legend:
# NS3/4A J4L6S strain = target: T1, NS3/4A J4L6S strain (Hepatitis C virus genotype 1b, UniProt O92972, C1454S/C1711G); assay: Recombinant HCV NS3/4A protease complex FRET peptide assay, J4L6S strain; assay type: biochemical, HCV genotype 1b
# T1 construct: DNA encoding the recombinant HCV NS3/4A protease complex (amino acids 1027 to 1711) for these strains; His tag (inferred from pET21b vector and Ni-NTA purification); made in house; host or cells: Escherichia coli BL21 (DE3)
# T1 sequence (O92972 1027-1711 C1454S/C1711G): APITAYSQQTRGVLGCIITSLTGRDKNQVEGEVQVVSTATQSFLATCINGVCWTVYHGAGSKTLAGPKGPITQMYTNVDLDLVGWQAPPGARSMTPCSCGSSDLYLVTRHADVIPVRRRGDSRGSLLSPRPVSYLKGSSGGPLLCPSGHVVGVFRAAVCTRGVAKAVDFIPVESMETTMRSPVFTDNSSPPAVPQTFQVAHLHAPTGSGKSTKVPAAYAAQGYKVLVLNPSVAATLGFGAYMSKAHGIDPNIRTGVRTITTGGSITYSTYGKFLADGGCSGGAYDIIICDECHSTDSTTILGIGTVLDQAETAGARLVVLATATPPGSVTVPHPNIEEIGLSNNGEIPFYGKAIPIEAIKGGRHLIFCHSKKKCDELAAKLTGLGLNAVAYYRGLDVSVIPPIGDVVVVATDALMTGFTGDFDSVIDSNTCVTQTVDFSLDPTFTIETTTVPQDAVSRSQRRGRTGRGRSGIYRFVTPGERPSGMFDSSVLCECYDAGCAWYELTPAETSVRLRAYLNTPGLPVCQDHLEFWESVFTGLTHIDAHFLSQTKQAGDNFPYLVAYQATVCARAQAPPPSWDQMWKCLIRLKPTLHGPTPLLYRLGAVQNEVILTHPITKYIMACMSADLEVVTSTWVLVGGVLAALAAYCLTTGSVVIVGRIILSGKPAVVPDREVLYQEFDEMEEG
# Source text: (§1) Recombinant HCV NS3/4A Protease Complex FRET Peptide Assay
# (§2) The purpose of this in vitro assay was to measure the inhibition of HCV NS3 protease complexes, derived from the BMS, H77C or J416S strains, as described below, by compounds of the present invention. This assay provides an indication of how effective compounds of the present invention would be in inhibiting HCV proteolytic activity.
# (§3) Serum from an HCV-infected patient was obtained from Dr. T. Wright, San Francisco Hospital. An engineered full-length cDNA (compliment deoxyribonucleic acid) template of the HCV genome (BMS strain) was constructed from DNA fragments obtained by reverse transcription-PCR (RT-PCR) of serum RNA (ribonucleic acid) and using primers selected on the basis of homology between other genotype 1a strains. From the determination of the entire genome sequence, a genotype 1a was assigned to the HCV isolate according to the classification of Simmonds et al. (See P Simmonds, K A Rose, S Graham, S W Chan, F McOmish, B C Dow, E A Follett, P L Yap and H Marsden, J. Clin. Microbiol., 31(6), 1493–1503 (1993)). […]
# [1] = test system: T2, human pancreatic chymotrypsin; assay: Specificity assay, chymotrypsin; assay type: biochemical; conditions: 2 hr pre-incubation at RT
# T2 construct: human pancreatic chymotrypsin
# Protocol: The specificities of compounds of the present invention were determined against a variety of serine proteases: human sputum elastase (HS), porcine pancreatic elastase (PPE) and human pancreatic chymotrypsin and one cysteine protease: human liver cathepsin B. In all cases a 96-well plate format protocol using calorimetric p-nitroaniline (pNA) substrate specific for each enzyme was used as described previously (Patent WO 00/09543) with some modifications to the serine protease assays. All enzymes were purchased from Sigma while the substrates were from Bachem.
# Each assay included a 2 hr enzyme-inhibitor pre-incubation at RT followed by addition of substrate and hydrolysis to ˜30% conversion as measured on a Spectramax Pro microplate reader. Compound concentrations varied from 100 to 0.4 μM depending on their potency. […]
# The percentage of inhibition was calculated using the formula: [1-((UVinh−UVblank)/(UVctl−UVblank))]×100 […]
# NS3/4A H77C strain = target: T3, NS3/4A H77C strain (Hepatitis C virus genotype 1a, UniProt P27958, C1454S); assay: Recombinant HCV NS3/4A protease complex FRET peptide assay, H77C strain; assay type: biochemical, HCV genotype 1a
# T3 construct: DNA encoding the recombinant HCV NS3/4A protease complex (amino acids 1027 to 1711) for these strains; His tag (inferred from pET21b vector and Ni-NTA purification); made in house; host or cells: Escherichia coli BL21 (DE3)
# T3 sequence (P27958 1027-1657 C1454S): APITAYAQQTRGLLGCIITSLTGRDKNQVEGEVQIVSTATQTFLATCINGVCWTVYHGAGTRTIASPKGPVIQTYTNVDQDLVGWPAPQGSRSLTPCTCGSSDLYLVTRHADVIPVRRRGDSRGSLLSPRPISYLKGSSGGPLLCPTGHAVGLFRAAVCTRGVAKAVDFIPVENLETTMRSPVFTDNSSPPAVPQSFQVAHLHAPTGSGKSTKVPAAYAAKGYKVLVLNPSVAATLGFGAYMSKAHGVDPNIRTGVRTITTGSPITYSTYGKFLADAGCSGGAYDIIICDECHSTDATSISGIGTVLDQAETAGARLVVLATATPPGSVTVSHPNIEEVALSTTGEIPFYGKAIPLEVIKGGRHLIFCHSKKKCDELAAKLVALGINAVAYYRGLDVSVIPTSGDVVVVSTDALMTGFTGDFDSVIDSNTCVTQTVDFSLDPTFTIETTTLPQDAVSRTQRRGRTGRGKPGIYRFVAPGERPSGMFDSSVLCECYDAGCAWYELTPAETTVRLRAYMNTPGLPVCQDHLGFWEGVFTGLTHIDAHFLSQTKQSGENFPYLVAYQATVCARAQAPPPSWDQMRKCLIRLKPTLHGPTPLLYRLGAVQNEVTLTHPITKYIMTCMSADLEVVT
# T3 sequence (P27958 1658-1714 partner, looked up, stated change not applied): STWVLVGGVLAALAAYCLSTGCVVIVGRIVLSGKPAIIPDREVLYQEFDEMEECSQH
# Source text: as §1, §2, §3
compound,measurement,setting,value
"C=CC1C[C@]1(NC(=O)[C@@H]1C[C@@H](OC(=O)Nc2ccccc2-c2ccccc2)CN1C(=O)[C@@H](NC(=O)OC(C)(C)C)C(C)(C)C)C(=O)NS(=O)(=O)C1CC1 (stereo partly drawn) [Compound 8, BocNH-P3(t-BuGly)-P2(Hyp(O—CO(NH-biphen-2-yl)))-P1(1R,2S VinylAcca)—CONHSO2Cyclopropane]",IC50,NS3/4A J4L6S strain,9.5 nM
same,IC50,[1],> 100000 nM
same,IC50,NS3/4A H77C strain,11 nM
